Data on 1 compound can be found in US20250049705A1, “PHARMACEUTICAL COMPOSITION COMPRISING TIGECYCLINE” (ZAMBON S.p.A., priority 2021, published 2025).

In one data set the test system is Mycobacterium abscessus. Kind of data set: Anti-mycobacterial activity in infected THP-1 macrophages (CFU of cell lysates). Format: cell-based. As to the method: Modification of the Dulbecco Eagle medium (Cellgro 15-017-cv) supplemented with: • Heat-inactivated fetal calf serum (Atlas Biologicals, Fort Collins, CO, F-0500-A) (10%) • LCM (10%)
Medium conditioned by L929: L-929 (CCL-1) (ATCC) cells secrete the macrophage colony-stimulating factor (M-CSF), the cytokine that differentiates bone marrow macrophages/monocyte progenitors into a homogeneous population of mature macrophages. They are seeded at 4.7×10^5 cells in 55 ml of DMEM+10% of fetal calf serum in a ball of 75 cm2. Cells are left to grow for 3 days and then the supernatant is collected and filtered through a 0.45 μm filter, aliquoted and frozen at −20° C.
The cell-free filtrate is used in DMEM media. • L-glutamine (Sigma G-7513) (2 mM) • HEPES buffer (Sigma H-0887) (10 mM) Antibiotic/antimycotic (Sigma A-9909) (1×) • non-essential amino acids MEM (Sigma M-7145) (1×) • 2-mercaptoethanol (Sigma M-6250) (50 nM)
THP-1 cells were expanded for 2 weeks.
Complete DMEM media free of antibiotic/antimycotic were not changed during the 3-day test.
On day 0, the media were removed from the cells and replaced with 0.2 mL of antibiotic/antimycotic-free DMEM containing Mycobacterium abscessus at a ratio of 10 bacteria per macrophage.
The tissue culture plates were placed inside closed Ziploc bags and transported to the incubator. Once inside the incubator, the bags were opened. The cells were incubated with the bacteria for 2 hours.
After the infection, the extracellular bacteria were removed by washing each well once with PBS. Then 2 mL of complete DMEM medium free of antibiotics/antimycotics and various drug concentrations were added.
Each drug concentration was tested in triplicate. Culture plates were incubated with antibiotics at 37° C.+5% CO2 for 3 days.

Data set [1] can be described thus: Storage of a solution of tigecycline (degradation in aqueous solution). The class given is physicochemical. To be noted: degradation by oxidation and epimerization; 24 hours at 5° C., 25° C. and 40° C.

For the compound `CN(C)c1cc(NC(=O)CNC(C)(C)C)c(O)c2c1C[C@H]1C[C@H]3[C@H](N(C)C)C(O)=C(C(N)=O)C(=O)[C@@]3(O)C(O)=C1C2=O` [Pure Tigecycline, tigecycline], the “Day 1 CFU” value is 287 CFU in the data set on Mycobacterium abscessus (pure tigecycline 1 μg/ml); 263 CFU in the data set with Mycobacterium abscessus (pure tigecycline 2 μg/ml); 427 CFU with Mycobacterium abscessus (pure tigecycline 4 μg/ml); 303 CFU in the data set with Mycobacterium abscessus (pure tigecycline 8 μg/ml); 333 CFU with Mycobacterium abscessus (pure tigecycline 16 μg/ml); 287 CFU with Mycobacterium abscessus (pure tigecycline 24 μg/ml). Also, the “Day 2 CFU” value in the data set with Mycobacterium abscessus (pure tigecycline 1 μg/ml) is listed as 2067 CFU; in the data set on Mycobacterium abscessus (pure tigecycline 2 μg/ml) it was 203 CFU; in the data set on Mycobacterium abscessus (pure tigecycline 4 μg/ml) it was 123 CFU; in the data set on Mycobacterium abscessus (pure tigecycline 8 μg/ml), 203 CFU; with Mycobacterium abscessus (pure tigecycline 16 μg/ml), 203 CFU; in the data set on Mycobacterium abscessus (pure tigecycline 24 μg/ml) it was 90 CFU. Also, the “Day 3 CFU” value in the data set with Mycobacterium abscessus (pure tigecycline 1 μg/ml) was found to be 2667 CFU; in the data set with Mycobacterium abscessus (pure tigecycline 2 μg/ml), 1743 CFU; in the data set on Mycobacterium abscessus (pure tigecycline 4 μg/ml) it was 267 CFU; with Mycobacterium abscessus (pure tigecycline 8 μg/ml), 220 CFU; with Mycobacterium abscessus (pure tigecycline 16 μg/ml), 153 CFU; in the data set on Mycobacterium abscessus (pure tigecycline 24 μg/ml), 143 CFU. Also, the “stability in aqueous solution” value in data set [1] was “extremely unstable”.
